Test results published in paper PMC10281575, “PfCRT mutations conferring piperaquine resistance in falciparum malaria shape the kinetics of quinoline drug binding and transport” (PLOS Pathogens, 2023).
Substitutions are numbered along the chain they refer to. Where “and” joins values, the source holds several entries; their conditions need not be identical. Equal values may be shown once.

Legend:
[1] = target: T1, PfCRT^Dd2_H97Y_F145I (Plasmodium falciparum, UniProt Q8IBZ9, A220S/F145I/H97Y/I356T/K76T/M74I/N326S/N75E/Q271E/R371I); test: Radiolabeled drug uptake in X. laevis oocytes expressing PfCRT^Dd2_H97Y_F145I; format: cell-based; conditions: for PfCRTDd2_H97Y_F145I-mediated PPQ transport: individual replicates (Fig 11)
T1 construct: expressed in transfected cells; host or cells: Xenopus laevis oocytes injected with in vitro transcribed RNA
T1 sequence (Q8IBZ9 1-424 M74I/N75E/K76T/H97Y/F145I/A220S/Q271E/N326S/I356T/R371I): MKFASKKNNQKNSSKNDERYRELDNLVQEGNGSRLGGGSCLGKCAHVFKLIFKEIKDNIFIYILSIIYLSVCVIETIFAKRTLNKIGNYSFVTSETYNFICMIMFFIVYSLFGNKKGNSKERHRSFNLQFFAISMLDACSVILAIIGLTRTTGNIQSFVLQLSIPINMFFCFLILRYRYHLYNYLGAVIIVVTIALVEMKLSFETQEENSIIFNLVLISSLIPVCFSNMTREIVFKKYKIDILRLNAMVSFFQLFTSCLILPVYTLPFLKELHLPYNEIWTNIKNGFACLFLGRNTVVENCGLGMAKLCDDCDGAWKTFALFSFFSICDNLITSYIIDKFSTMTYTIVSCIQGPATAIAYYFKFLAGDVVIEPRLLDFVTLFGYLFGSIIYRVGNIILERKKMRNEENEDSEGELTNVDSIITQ
Protocol: (§1) Adult female X. laevis frogs (purchased from NASCO) were anesthetized by submersion in a solution of 0.3% (w/v) 3-amino benzoate methanesulfonate for 15 min. Sections of the ovary were surgically removed and placed in Ca^2+-free ND96 buffer supplemented with 0.1% collagenase D (w/v; Roche), 0.5% BSA (w/v) and 9 mM Na2HPO4 at 18°C for 14–16 h while gently shaking. The oocytes were then washed several times with ND96 buffer (5 mM HEPES, pH 7.5, 96 mM NaCl, 2 mM KCl, 1.8 mM CaCl2, 1 mM MgCl2), supplemented with […] gentamycin. Healthy-looking stage V-VI oocytes were manually selected and randomly grouped for injection. A codon-optimized coding sequence of PfCRT was subcloned into the pSP64T expression vector and subsequently linearized using the restriction endonuclease BamHI or SalI (New England Biolabs GmbH). RNA for injection was transcribed in vitro using the mMESSAGE mMACHINE SP6 Transcription kit (Ambion), diluted with nuclease-free water to a final concentration of 0.6 μg/μL and stored at -80°C. RNA was injected using precision-bore glass capillary tubes (3.5-inch glass capillaries; Drummond Scientific Co.), which were pulled on a vertical puller (P-87 Flaming/Brown micropipette puller, Sutter Instrument Co.) and graduated. The micropipettes were connected to a microinjector (Nanoject II Auto-Nanoliter Injector, Drummond Scientific Co.). Injection was conducted under stereomicroscopic control. 50 nL of nuclease-free water alone (control oocytes) or 50 nL of nuclease-free water containing 30 ng of RNA was injected per oocyte. Injected oocytes were kept for 72 h at 18°C in ND96 buffer with two daily buffer changes before being used for further experiments.
(§2) Drug transport assays were performed as previously described. Briefly, measurements of radiolabeled drug uptake were made over 1 h, unless otherwise specified. […] Where specified, one or more unlabeled drugs were also present at the indicated concentrations. […] The uptake assays were terminated by removing the oocytes from the reaction medium and washing them three times with 2 mL of ice-cold ND96 buffer. Each oocyte was transferred to a separate scintillation vial and lysed by the addition of 200 μL of a 5% SDS solution. The radioactivity in the sample was measured using a liquid scintillation analyser Tri-Carb 4910 TR (PerkinElmer). Water-injected oocytes were analyzed in parallel as a negative control. The buffer from each condition was measured in duplicate in parallel to each experiment to transform counts per minute into pmol of drug. Drug uptake attributable to PfCRT was determined by subtracting the background uptake from water-injected oocytes from that of PfCRT-expressing oocytes. In all cases, at least three independent experiments were performed on oocytes from different frogs, and for each condition in an experiment, measurements were made from 10 oocytes per treatment.

[2] = tested on: water-injected oocytes; test: Radiolabeled drug uptake in water-injected control oocytes (intrinsic drug accumulation); format: cell-based, Xenopus laevis; conditions: 50 μM PPQ, pH 6.0; one value per biological replicate
Protocol: as §1, §2

[3] = target: T2, PfCRT^Dd2 (Plasmodium falciparum, UniProt Q8IBZ9, A220S/I356T/K76T/M74I/N326S/N75E/Q271E/R371I); test: Radiolabeled drug uptake (transport assay) in Xenopus laevis oocytes expressing PfCRT^Dd2; format: cell-based; set-up: expressed in transfected cells; host or cells: Xenopus laevis oocytes injected with in vitro transcribed RNA (pSP64T)
T2 sequence (Q8IBZ9 1-424 M74I/N75E/K76T/A220S/Q271E/N326S/I356T/R371I): T1 sequence (Q8IBZ9 1-424 M74I/N75E/K76T/H97Y/F145I/A220S/Q271E/N326S/I356T/R371I) with Y97H, I145F
Protocol: The two kinetic parameters were derived by fitting the Michaelis-Menten equation to the kinetic data (Table 1).
as §1, §2

[4] = Hill equation fit, 10-500 μM drug, pH 6
[5] = 50 μM PPQ, pH 6.0, total uptake, one value per biological replicate
[6] = 50 μM PPQ, pH 6.0, water-injected uptake subtracted, per replicate
[7] = 60 min, pH 6, per biological replicate

Clc1ccc2c(N3CCN(CCCN4CCN(c5ccnc6cc(Cl)ccc56)CC4)CC3)ccnc2c1 [PPQ, piperaquine]
PfCRTDd2_H97Y_F145I-mediated PPQ transport ([1]; 10 µM PPQ): 4.45 pmol oocyte-1 h-1 and 2.50 pmol oocyte-1 h-1 and 6.51 pmol oocyte-1 h-1
PfCRTDd2_H97Y_F145I-mediated PPQ transport ([1]; 50 µM PPQ): 12.64 pmol oocyte-1 h-1 and 8.74 pmol oocyte-1 h-1 and 25.96 pmol oocyte-1 h-1 and 14.99 pmol oocyte-1 h-1 and 20.94 pmol oocyte-1 h-1
PfCRTDd2_H97Y_F145I-mediated PPQ transport ([1]; 100 µM PPQ): 28.86 pmol oocyte-1 h-1 and 38.51 pmol oocyte-1 h-1 and 10.62 pmol oocyte-1 h-1 and 34.53 pmol oocyte-1 h-1
PfCRTDd2_H97Y_F145I-mediated PPQ transport ([1]; 200 µM PPQ): 112.27 pmol oocyte-1 h-1 and 50.98 pmol oocyte-1 h-1 and 60.86 pmol oocyte-1 h-1 and 71.21 pmol oocyte-1 h-1 and 85.02 pmol oocyte-1 h-1
PfCRTDd2_H97Y_F145I-mediated PPQ transport ([1]; 300 µM PPQ): 111.40 pmol oocyte-1 h-1 and 72.67 pmol oocyte-1 h-1 and 112.81 pmol oocyte-1 h-1 and 115.57 pmol oocyte-1 h-1
PfCRTDd2_H97Y_F145I-mediated PPQ transport ([1]; 400 µM PPQ): 94.84 pmol oocyte-1 h-1 and 111.83 pmol oocyte-1 h-1 and 131.05 pmol oocyte-1 h-1
PfCRTDd2_H97Y_F145I-mediated PPQ transport ([1]; 500 µM PPQ): 81.84 pmol oocyte-1 h-1 and 171.24 pmol oocyte-1 h-1 and 123.65 pmol oocyte-1 h-1 and 87.38 pmol oocyte-1 h-1
Hc, Hill coefficient [1, 4]: 2.0 ± 0.3
Vmax, maximal velocity of drug transport [1, 4]: 131 ± 3 pmol oocyte^-1 h^-1 and 131 ± 10 pmol oocyte^-1 h^-1
Km ([1]; Hill equation fit, 10-500 μM drug, pH 6, read-out: KM, Michaelis constant): 170 ± 20 µM
water-injected PPQ uptake at 10 min [2]: 41.08 pmol oocyte-1 and 24.73 pmol oocyte-1 and 20.03 pmol oocyte-1 and 11.15 pmol oocyte-1 and 47.19 pmol oocyte-1 and 42.00 pmol oocyte-1 and 43.00 pmol oocyte-1 and 24.03 pmol oocyte-1 and 24.68 pmol oocyte-1
water-injected PPQ uptake at 30 min [2]: 39.93 pmol oocyte-1 and 81.64 pmol oocyte-1 and 110.61 pmol oocyte-1 and 36.25 pmol oocyte-1 and 63.03 pmol oocyte-1 and 70.49 pmol oocyte-1 and 61.47 pmol oocyte-1
water-injected PPQ uptake at 60 min [2]: 160.55 pmol oocyte-1 and 290.10 pmol oocyte-1 and 103.17 pmol oocyte-1 and 89.81 pmol oocyte-1 and 146.11 pmol oocyte-1 and 119.20 pmol oocyte-1 and 106.15 pmol oocyte-1 and 92.97 pmol oocyte-1 and 66.51 pmol oocyte-1 and 37.81 pmol oocyte-1 and 81.90 pmol oocyte-1 and 130.00 pmol oocyte-1 and 94.16 pmol oocyte-1 and 115.25 pmol oocyte-1 and 26.09 pmol oocyte-1
water-injected PPQ uptake at 90 min [2]: 141.60 pmol oocyte-1 and 108.94 pmol oocyte-1 and 115.49 pmol oocyte-1 and 110.70 pmol oocyte-1 and 135.43 pmol oocyte-1 and 121.15 pmol oocyte-1 and 104.62 pmol oocyte-1
water-injected PPQ uptake at 120 min [2]: 303.20 pmol oocyte-1 and 211.45 pmol oocyte-1 and 192.46 pmol oocyte-1 and 188.86 pmol oocyte-1 and 88.47 pmol oocyte-1 and 177.90 pmol oocyte-1 and 230.86 pmol oocyte-1 and 32.42 pmol oocyte-1 and 62.20 pmol oocyte-1 and 374.51 pmol oocyte-1 and 406.68 pmol oocyte-1
water-injected PPQ uptake at 180 min [2]: 179.29 pmol oocyte-1 and 189.51 pmol oocyte-1 and 135.33 pmol oocyte-1 and 198.05 pmol oocyte-1 and 192.50 pmol oocyte-1 and 163.03 pmol oocyte-1 and 220.09 pmol oocyte-1 and 265.31 pmol oocyte-1 and 192.47 pmol oocyte-1
PfCRTDd2-mediated PPQ uptake at 10 µM PPQ ([3]; 10 µM PPQ, single replicates): 7.56 pmol oocyte-1 h-1 and 10.37 pmol oocyte-1 h-1 and 9.52 pmol oocyte-1 h-1
PfCRTDd2 PPQ uptake at 10 min [3, 5]: 37.95 pmol oocyte-1 and 17.31 pmol oocyte-1 and 66.26 pmol oocyte-1 and 58.58 pmol oocyte-1 and 53.50 pmol oocyte-1 and 34.40 pmol oocyte-1
PfCRTDd2 PPQ uptake at 30 min [3, 5]: 69.53 pmol oocyte-1 and 108.95 pmol oocyte-1 and 50.26 pmol oocyte-1
PfCRTDd2 PPQ uptake at 60 min [3, 5]: 123.14 pmol oocyte-1 and 94.65 pmol oocyte-1 and 103.77 pmol oocyte-1 and 219.78 pmol oocyte-1 and 140.45 pmol oocyte-1 and 145.26 pmol oocyte-1
PfCRTDd2 PPQ uptake at 90 min [3, 5]: 183.05 pmol oocyte-1 and 183.06 pmol oocyte-1 and 147.41 pmol oocyte-1
PfCRTDd2 PPQ uptake at 120 min [3, 5]: 118.72 pmol oocyte-1 and 197.79 pmol oocyte-1 and 316.81 pmol oocyte-1 and 143.54 pmol oocyte-1 and 477.33 pmol oocyte-1
PfCRTDd2 PPQ uptake at 180 min [3, 5]: 167.85 pmol oocyte-1 and 274.70 pmol oocyte-1 and 265.00 pmol oocyte-1
PfCRTDd2-mediated PPQ uptake at 10 min [3, 6]: 17.92 pmol oocyte-1 and 6.16 pmol oocyte-1 and 19.07 pmol oocyte-1 and 16.58 pmol oocyte-1 and 10.50 pmol oocyte-1 and 10.36 pmol oocyte-1
PfCRTDd2-mediated PPQ uptake at 30 min [3, 6]: 29.61 pmol oocyte-1 and 27.31 pmol oocyte-1 and 14.01 pmol oocyte-1
PfCRTDd2-mediated PPQ uptake at 60 min [3, 6]: 28.14 pmol oocyte-1 and 21.87 pmol oocyte-1 and 89.78 pmol oocyte-1 and 46.28 pmol oocyte-1 and 30.01 pmol oocyte-1 and 33.33 pmol oocyte-1
PfCRTDd2-mediated PPQ uptake at 90 min [3, 6]: 41.43 pmol oocyte-1 and 74.11 pmol oocyte-1 and 31.93 pmol oocyte-1
PfCRTDd2-mediated PPQ uptake at 120 min [3, 6]: 30.25 pmol oocyte-1 and 19.89 pmol oocyte-1 and 85.94 pmol oocyte-1 and 81.35 pmol oocyte-1 and 70.65 pmol oocyte-1
PfCRTDd2-mediated PPQ uptake at 180 min [3, 6]: 32.52 pmol oocyte-1 and 76.65 pmol oocyte-1 and 72.50 pmol oocyte-1
PfCRTDd2-mediated PPQ uptake at 50 µM PPQ ([3]; 50 µM PPQ, single replicates): 28.14 pmol oocyte-1 h-1 and 21.87 pmol oocyte-1 h-1 and 89.78 pmol oocyte-1 h-1 and 46.28 pmol oocyte-1 h-1 and 30.01 pmol oocyte-1 h-1 and 33.33 pmol oocyte-1 h-1 and 10.90 pmol oocyte-1 h-1
PfCRTDd2-mediated PPQ uptake at 100 µM PPQ ([3]; 100 µM PPQ, single replicates): 59.97 pmol oocyte-1 h-1 and 45.22 pmol oocyte-1 h-1 and 64.52 pmol oocyte-1 h-1
PfCRTDd2-mediated PPQ uptake at 200 µM PPQ ([3]; 200 µM PPQ, single replicates): 87.13 pmol oocyte-1 h-1 and 109.05 pmol oocyte-1 h-1 and 57.84 pmol oocyte-1 h-1
PfCRTDd2-mediated PPQ uptake at 300 µM PPQ ([3]; 300 µM PPQ, single replicates): 90.42 pmol oocyte-1 h-1 and 110.91 pmol oocyte-1 h-1 and 77.44 pmol oocyte-1 h-1
PfCRTDd2-mediated PPQ uptake at 400 µM PPQ ([3]; 400 µM PPQ, single replicates): 113.37 pmol oocyte-1 h-1 and 109.88 pmol oocyte-1 h-1 and 74.49 pmol oocyte-1 h-1
PfCRTDd2-mediated PPQ uptake at 500 µM PPQ ([3]; 500 µM PPQ, single replicates): 118.94 pmol oocyte-1 h-1 and 82.44 pmol oocyte-1 h-1 and 112.35 pmol oocyte-1 h-1
PfCRTDd2-mediated PPQ uptake at 10 µM PPQ [3, 7]: 7.56 pmol oocyte-1 h-1 and 10.37 pmol oocyte-1 h-1 and 9.52 pmol oocyte-1 h-1
PfCRTDd2-mediated PPQ uptake at 50 µM PPQ [3, 7]: 33.33 pmol oocyte-1 h-1 and 10.9 pmol oocyte-1 h-1 and 28.14 pmol oocyte-1 h-1 and 21.87 pmol oocyte-1 h-1 and 89.78 pmol oocyte-1 h-1 and 46.28 pmol oocyte-1 h-1 and 30.01 pmol oocyte-1 h-1
PfCRTDd2-mediated PPQ uptake at 100 µM PPQ [3, 7]: 59.97 pmol oocyte-1 h-1 and 45.22 pmol oocyte-1 h-1 and 64.52 pmol oocyte-1 h-1
PfCRTDd2-mediated PPQ uptake at 200 µM PPQ [3, 7]: 87.13 pmol oocyte-1 h-1 and 109.05 pmol oocyte-1 h-1 and 57.84 pmol oocyte-1 h-1
PfCRTDd2-mediated PPQ uptake at 300 µM PPQ [3, 7]: 90.42 pmol oocyte-1 h-1 and 110.91 pmol oocyte-1 h-1 and 77.44 pmol oocyte-1 h-1
PfCRTDd2-mediated PPQ uptake at 400 µM PPQ [3, 7]: 113.37 pmol oocyte-1 h-1 and 109.88 pmol oocyte-1 h-1 and 74.49 pmol oocyte-1 h-1
PfCRTDd2-mediated PPQ uptake at 500 µM PPQ [3, 7]: 118.94 pmol oocyte-1 h-1 and 82.44 pmol oocyte-1 h-1 and 112.35 pmol oocyte-1 h-1
Vmax, maximal velocity of drug transport ([3]; Michaelis-Menten fit, 10-500 μM drug, 60 min, pH 6): 131 ± 3 pmol oocyte^-1 h^-1 and 259.88 pmol oocyte^-1 h^-1
Km ([3]; Michaelis-Menten fit, 10-500 μM drug, 60 min, pH 6, read-out: KM, Michaelis constant): 125 ± 9 µM
